This is an account of results in patent publication US6933288B2, “Pyranosyl cytosines: pharmaceutical formulations and methods” (ISIS Pharmaceuticals, Inc., priority 2002, dated 2005).

The test system of the experiment is C. Albicans. Briefly: Activity against fungi (C. albicans). Type of experiment: cell-based. The settings on record: Table 10. The text has this:
Table 10 presents results of activity assays for selected compounds against fungi, as exemplified by activity against c. albicans according to assays known in the art.
For the compound `CNCC(=O)NC(CCN)C(=O)CC1C(C(=O)N2CCNCC2)OC(n2ccc(NCCCN3CCN(C)CC3)nc2=O)C(O)C1O` (stereo not drawn) [compound 2], the “Activity against C. Albicans” value fell in the range of 3 to 6 µM.
On to `CNCCNC(CCN)C(=O)CC1C(C(=O)N2CCNCC2)OC(n2ccc(N)nc2=O)C(O)C1O` (stereo not drawn) [compound 1], for which the “Activity against C. Albicans” value lay within 1 to 3 µM.
With `CNCC(=O)NC(CCN)C(=O)NC1C(C(=O)N2CCNCC2)OC(n2ccc(N)nc2=O)C(O)C1O` (stereo not drawn) [compound 5], the “Activity against C. Albicans” value fell in the range of 1 to 3 µM.
